According to patent US11319298B2 (Merck Sharp & Dohme Corp., priority 2016, dated 2022):

What follows are molecules tested against T1, human M4 muscarinic acetylcholine receptor (Homo sapiens, UniProt P08173) (assay: human FLIPR-based M4 PAM assay, CHO-K1 cells stably transfected with human M4 receptor and chimeric G-protein Gαqi5). Conditions: inflection point (IP) of dose response curve; acetylcholine added at 20% of maximum response; CHO-K1 human M4/Gαqi5, FLIPR Tetra.
T1 construct: expressed in transfected cells; host or cells: CHO-K1
T1 sequence (P08173 1-479): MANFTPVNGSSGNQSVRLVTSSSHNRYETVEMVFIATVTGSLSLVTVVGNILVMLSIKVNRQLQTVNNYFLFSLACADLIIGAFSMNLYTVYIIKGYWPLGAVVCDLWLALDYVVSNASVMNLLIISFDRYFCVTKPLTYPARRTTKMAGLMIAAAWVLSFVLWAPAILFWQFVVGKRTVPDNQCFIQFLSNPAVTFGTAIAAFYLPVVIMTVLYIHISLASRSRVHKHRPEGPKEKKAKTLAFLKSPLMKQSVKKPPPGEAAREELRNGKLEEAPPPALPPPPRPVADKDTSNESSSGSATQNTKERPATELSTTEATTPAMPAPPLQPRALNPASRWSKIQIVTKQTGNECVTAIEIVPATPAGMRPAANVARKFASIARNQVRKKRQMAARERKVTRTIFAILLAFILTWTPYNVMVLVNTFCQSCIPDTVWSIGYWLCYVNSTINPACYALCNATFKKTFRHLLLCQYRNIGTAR
Format: cell-based
Procedure, shortened: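 CHO-K1 cells were loaded with calcium dye at 37 °C for ~1 h. Fluorescence (ex 470–495/em 515–575 nm) was read for 4 min after test compound at increasing concentrations, then 3.5 min after acetylcholine at an EC20; sometimes a third addition at EC70 followed. The value is the inflection point of a 4-parameter logistic fit.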
For `COc1ccc(OC2CCN(c3nnc(C(=O)NCc4ccncc4)cc3C(F)F)CC2)cn1` [Example 265, 5-(Difluoromethyl)-6-(4-((6-methoxypyridin-3-yl)oxy)piperidin-1-yl)-N-(pyridin-4-ylmethyl)pyridazine-3-carboxamide], the EC50 was 585 nM.
Molecule `Cc1cc(C#N)nnc1N1CCC(Oc2cccc(C#N)c2)CC1` [Example 259, 6-(4-(3-cyanophenoxy)piperidin-1-yl)-5-methylpyridazine-3-carbonitrile] has an EC50 of 62 nM.
`Cc1cc(C(=O)NCc2ccncc2)c(N)nc1N1CCC(Oc2cccc(C#N)c2)CC1` [Example 266, 2-Amino-6-(4-(3-cyanophenoxy)piperidin-1-yl)-5-methyl-N-(pyridin-4-ylmethyl)nicotinamide] gave an EC50 of 4290 nM.
`COc1ccc(OC2CCN(c3nnc(C(=O)NCc4cc(F)c(OC)c(F)c4)cc3C)CC2)cn1` [Example 181, N-(3,5-difluoro-4-methoxybenzyl)-6-{4-[(6-methoxypyridin-3-yl)oxy]piperidin-1-yl}-5-methylpyridazine-3-carboxamide] showed an EC50 of 871 nM.
For `Cc1c(Cl)nc(CO)nc1N1CCC(Oc2ccc3c(c2)C(=O)CC3)CC1` [Example 26, 6-((1-(6-chloro-2-(hdyroxymethyl)-5-methylpyrimidin-4-yl)piperidin-4-yl)oxy)-2,3-dihydro-1H-inden-1-one], the EC50 was 85 nM.
In the case of `Cc1nc(Cl)c(C)c(N2CCC(Oc3ccc4c(cnn4C)c3)CC2)n1` [Example 56, 5-((1-(6-chloro-2,5-dimethypyrimidin-4-yl)piperidin-4-yl)oxy)-1-methyl-1H-indazole], the EC50 is reported as 60 nM.
`Cc1ncc(C)c(N2CCC(Oc3cccc(C#N)c3)CC2)n1` [Example 76, 3-((1-(2,5-dimethylpyrimidin-4-yl)piperidin-4-yl)oxy)benzonitrile] showed an EC50 of 172 nM.
`COc1ccc(OC2CCN(c3nc(OC)nc(Cl)c3C)CC2)cn1` [Example 227, 4-Chloro-2-methoxy-6-(4-((6-methoxypyridin-3-yl)oxy)piperidin-1-yl)-5-methylpyrimidine] was tested, and the EC50 was 55 nM.
With `Cc1cc(C(=O)NC2CCc3cccnc3C2)nnc1N1CCC(Oc2cccc(C#N)c2)CC1` (centres unmarked) [Example 160, 6-[4-(3-cyanophenoxy)piperidin-1-yl]-5-methyl-N-(5,6,7,8-tetrahydroquinolin-7-yl)pyridazine-3-carboxamide] the EC50 was 295 nM.
Molecule `COc1ccc(OC2CCN(c3nnc(C(=O)NC45CC(C4)C5)cc3C)CC2)cn1` [Example 147, N-bicyclo[1.1.1]pent-1-yl-6-{4-[(6-methoxypyridin-3-yl)oxy]piperidin-1-yl}-5-methylpyridazine-3-carboxamide] has an EC50 of 209 nM.
Work on `Cc1cc(C(=O)NC2CCCc3ccccc32)nnc1N1CCC(Oc2cccc(C#N)c2)CC1` (centres unmarked) [Example 202, 6-[4-(3-cyanophenoxy)piperidin-1-yl]-5-methyl-N-(1,2,3,4-tetrahydronaphthalne-1-yl)pyridazine-3-carboxamide] yielded an EC50 of 473 nM.
Work on `Cc1cc(C(=O)NCc2ccncc2)nnc1N1CCC(Oc2cccc(C#N)c2)CC1` [Example 204A, 6-(4-(3-cyanophenoxy)piperidin-1-yl)-5-methyl-N-(pyridin-4-ylmethyl)pyridazine-3-carboxamide] yielded an EC50 of 99 nM.
In the case of `COc1ccc(O[C@@H]2CCN(c3nc(C(N)=O)nc(Cl)c3C)C[C@@H]2F)cn1` [Example 222, 4-chloro-6-((3S,4R)-3-fluoro-4-((6-methoxypyridin-3-yl)oxy)piperidin-1-yl)-5-methylpyrimidine-2-carboxamide], the EC50 is reported as 141 nM.
In the case of `Cc1c(Cl)nc(CO)nc1N1CCC(Oc2ccc3ccn(C)c(=O)c3c2)CC1` [Example 9, 7-((1-(6-chloro-2-(hydroxymethyl)-5-methylpyrimidin-4-yl)piperidin-4-yl)oxy)-2-methylisoquinolin-1(2H)-one], the EC50 is reported as 2490 nM.
Molecule `COc1ccc(OC2CCN(c3nnc(C(=O)NCc4ncn[nH]4)cc3C)CC2)cn1` [Example 167, 6-{4-[(6-methoxypyridin-3-yl)oxy]piperidin-1-yl}-5-methyl-N-(1H-1,2,4-triazol-5-ylmethyl)pyridazine-3-carboxamide] has an EC50 of 417 nM.
Molecule `COc1ccc(OC2CCN(c3nnc(C(=O)NCc4ccccc4C#N)cc3C)CC2)cn1` [Example 178, N-(2-cyanobenzyl)-6-{4-[(6-methoxypyridin-3-yl)oxy]piperidin-1-yl}-5-methylpyridazine-3-carboxamide] has an EC50 of 724 nM.
`Cc1nnc(N2CCC(Oc3cccc(C#N)c3)CC2)c(C#N)c1C` [Example 11, 3-(4-(3-cyanophenoxy)piperidin-1-yl)-5,6-dimethylpyridazine-4-carbonitrile] gave an EC50 of 1130 nM.
Work on `COc1ccc(OC2CCN(c3ncnc(CC(C)C)c3C)CC2)cn1` [Example 255, 4-isobutyl-6-(4-((6-methoxypyridin-3-yl)oxy)piperidin-1-yl)-5-methylpyrimidine] yielded an EC50 of 2520 nM.
`Cc1ncc(C)c(N2CCC(Oc3ccc(OCC(C)(C)N)nc3)CC2)n1` [Example 72, 1-((5-((1-(2,5-dimethylpyrimidin-4-yl)piperidin-4-yl)oxy)pyridin-2-yl)oxy)-2-methylpropan-2-amine] gave an EC50 of 140 nM.
Work on `COC(=O)c1cc(C)c(N2CC[C@H](Oc3ccc(OC)nc3)[C@H](F)C2)nn1` [Example 40, methyl 6-((3R,4S)-3-fluoro-4-((6-methoxypyridin-3-yl)oxy)piperidin-1-yl)-5-methylpyridazine-3-carboxylate] yielded an EC50 of 290 nM.
`Cc1cc(C(=O)NCc2ccncc2Cl)nnc1N1CCC(Oc2cccc(C#N)c2)CC1` [Example 151, N-[(3-chloropyridin-4-yl)methyl]-6-[4-(3-cyanophenoxy)piperidin-1-yl]-5-methylpyridazine-3-carboxamide] showed an EC50 of 241 nM.
With `COc1ncc(C#N)c(N2CCC(Oc3cccc(C#N)c3)CC2)n1` [Example 88, 4-(4-(3-cyanophenoxy)piperidin-1-yl)-2-methoxypyrimidine-5-carbonitrile] the EC50 was 1530 nM.
`COc1ccc(OC2CCN(c3nc(C)ncc3C)CC2)cn1` [Example 79, 4-(4-((6-methoxypyridin-3-yl)oxy)piperidin-1-yl)-2,5-dimethylpyrimidine] showed an EC50 of 235 nM.
For `COc1ccc(OC2CCN(c3nnc(C(=O)OCc4ccncc4)cc3C)CC2)cn1` [Example 106A, Pyridin-4-ylmethyl 6-(4-((6-methoxypyridin-3-yl)oxy)piperidin-1-yl)-5-methylpyridazine-3-carboxylate], the EC50 was 85 nM.
Molecule `Cc1cc(C(=O)N[C@@H]2CCc3cccnc3C2)nnc1N1CCC(Oc2cccc(C#N)c2)CC1` [Example 164B, (R)-6-[4-(3-cyanophenoxy)piperidin-1-yl]-5-methyl-N-(5,6,7,8-tetrahydroquinolin-7-yl)pyridazine-3-carboxamide] has an EC50 of 338 nM.
In the case of `COc1ccc(OC2CCN(c3nnc(C(=O)NCc4ccc5c(c4)OCO5)cc3C)CC2)cn1` [Example 166, N-(1,3-benzodioxol-5-ylmethyl)-6-{4-[(6-methoxypyridin-3-yl)oxy]piperidin-1-yl}-5-methylpyridazine-3-carboxamide], the EC50 is reported as 400 nM.
Work on `COc1ccc(OC2CCN(c3nnc(C(=O)N[C@H]4CCc5ccccc5C4)cc3C)CC2)cn1` [Example 165B, (S)-6-{4-[(6-methoxypyridin-3-yl)oxy]piperidin-1-yl}-5-methyl-N-(1,2,3,4-tetrahydronapthalen-2-yl)pyridazine-3-carboxamide] yielded an EC50 of 527 nM.
`Cc1cc(C(=O)NC2C3CC2C3)nnc1N1CCC(Oc2ccc3[nH]ncc3c2)CC1` (centres unmarked) [Example 124, N-bicyclo[1.1.1]pent-2-yl-6-[4-(1H-indazol-5-yloxy)piperidin-1-yl]-5-methylpyridazine-3-carboxamide] gave an EC50 of 101 nM.
In the case of `Cc1c(Cl)nc(CO)nc1N1CCC(Oc2ccc(S(C)(=O)=O)cc2)CC1` [Example 8, (4-chloro-5-methyl-6-(4-(4-(methylsulfonyl)phenoxy)piperidin-1-yl)pyrimidin-2-yl)methanol], the EC50 is reported as 1360 nM.
For `COc1ccc(OC2CCN(c3nnc(C(=O)NC4CCc5cc(F)ccc5C4)cc3C)CC2)cn1` (centres unmarked) [Example 168, N-(6-fluoro-1,2,3,4-tetrahydronaphthalen-2-yl)-6-{4-[(6-methoxypyridin-3-yl)oxy]piperidin-1-yl}-5-methylpyridazine-3-carboxamide], the EC50 was 446 nM.
`Cc1ccc(OC2CCN(c3nc(CO)nc(Cl)c3C)CC2)cc1Cl` [Example 3, (4-chloro-6-(4-(3-chloro-4-methylphenoxy)piperidin-1-yl)-5-methylpyrimidin-2-yl)methanol] showed an EC50 of 452 nM.
Molecule `COc1ccc(OC2CCN(c3nc(C)nc(Cl)c3C)CC2)cn1` [Example 1, 4-Chloro-6-(4-((6-methoxypyridin-3-yl)oxy)piperidin-1-yl)-2,5-dimethylpyrimidine] has an EC50 of 191 nM.
Work on `Cc1c(Cl)nc(CO)nc1N1CCC(Oc2ccc3c(c2)C(=O)CO3)CC1` [Example 91, 5-((1-(6-chloro-2-(hydroxymethyl)-5-methylpyrimidin-4-yl)piperidin-4-yl)oxy)benzofuran-3(2H)-one] yielded an EC50 of 27 nM.
Work on `Cc1cc(C(=O)NCc2ccncc2)nnc1N1CC[C@@H](Oc2cccc(C#N)c2)[C@@H](F)C1` [Example 115, 6-[(3S,4R)-4-(3-cyanophenoxy)-3-fluoropiperidin-1-yl]-5-methyl-N-(pyridin-4-ylmethyl)pyridazine-3-carboxamide] yielded an EC50 of 61 nM.
In the case of `Cc1c(Cl)nc(CO)nc1N1CCC(Oc2ccc3nn(C)cc3c2)CC1` [Example 63], the EC50 is reported as 99 nM.
